Assay [1] deals with Poly [ADP-ribose] polymerase 1 (Homo sapiens, UniProt P09874). As to the kind of experiment: Inhibition of PARP1 (unknown origin).
Assay [2] has as its system A549. As to the kind of experiment: Potentiation of carboplatin induced antiproliferative activity against human A549 cells assessed as increase in apoptotic cells at 10 uM by Hoechst staining based assay. The class given is functional, cell-based.
The subject of assay [3] is A549. The experiment in a line: Potentiation of carboplatin induced antiproliferative activity against human A549 cells assessed as reduction in cell viability at 10 uM by MTT assay. The class given is functional, cell-based. In general terms: Formazan colour is commonly taken as a measure of viable cells.
Assay [4] has as its system A549. As to the kind of experiment: Potentiation of carboplatin induced antiproliferative activity against human A549 cells assessed as increase in apoptotic cells at 10 uM by Annexin V-PI double staining based flow cytometric analysis. The class given is functional, cell-based.
The subject of assay [5] is A549. The experiment in a line: Potentiation of carboplatin induced antiproliferative activity against human A549 cells assessed as reduction in cell viability at 0.1 to 10 uM by MTT assay. The class given is functional, cell-based. To be noted: dose 0.1-10 µM.
Assay [6] concerns A549. The experiment in a line: Potentiation of carboplatin induced antiproliferative activity against human A549 cells assessed as increase in apoptotic cells at 0.1 to 10 uM by Annexin V-PI double staining based flow cytometric analysis. The class given is functional, cell-based. The note with it: dose 0.1-10 µM. On the technique in general: Flow cytometry measures light scatter and fluorescence of single cells or particles in a stream.

The test system of assay [7] is A549. The experiment in a line: Potentiation of carboplatin induced antiproliferative activity against human A549 cells assessed as increase in apoptotic cells at 0.1 to 10 uM by Hoechst staining based assay. The class given is functional, cell-based. The note with it: dose 0.1-10 µM.

The source made the active and inactive calls. No cut-off for these calls is given here.

Chain of Poly [ADP-ribose] polymerase 1 (P09874 whole entry): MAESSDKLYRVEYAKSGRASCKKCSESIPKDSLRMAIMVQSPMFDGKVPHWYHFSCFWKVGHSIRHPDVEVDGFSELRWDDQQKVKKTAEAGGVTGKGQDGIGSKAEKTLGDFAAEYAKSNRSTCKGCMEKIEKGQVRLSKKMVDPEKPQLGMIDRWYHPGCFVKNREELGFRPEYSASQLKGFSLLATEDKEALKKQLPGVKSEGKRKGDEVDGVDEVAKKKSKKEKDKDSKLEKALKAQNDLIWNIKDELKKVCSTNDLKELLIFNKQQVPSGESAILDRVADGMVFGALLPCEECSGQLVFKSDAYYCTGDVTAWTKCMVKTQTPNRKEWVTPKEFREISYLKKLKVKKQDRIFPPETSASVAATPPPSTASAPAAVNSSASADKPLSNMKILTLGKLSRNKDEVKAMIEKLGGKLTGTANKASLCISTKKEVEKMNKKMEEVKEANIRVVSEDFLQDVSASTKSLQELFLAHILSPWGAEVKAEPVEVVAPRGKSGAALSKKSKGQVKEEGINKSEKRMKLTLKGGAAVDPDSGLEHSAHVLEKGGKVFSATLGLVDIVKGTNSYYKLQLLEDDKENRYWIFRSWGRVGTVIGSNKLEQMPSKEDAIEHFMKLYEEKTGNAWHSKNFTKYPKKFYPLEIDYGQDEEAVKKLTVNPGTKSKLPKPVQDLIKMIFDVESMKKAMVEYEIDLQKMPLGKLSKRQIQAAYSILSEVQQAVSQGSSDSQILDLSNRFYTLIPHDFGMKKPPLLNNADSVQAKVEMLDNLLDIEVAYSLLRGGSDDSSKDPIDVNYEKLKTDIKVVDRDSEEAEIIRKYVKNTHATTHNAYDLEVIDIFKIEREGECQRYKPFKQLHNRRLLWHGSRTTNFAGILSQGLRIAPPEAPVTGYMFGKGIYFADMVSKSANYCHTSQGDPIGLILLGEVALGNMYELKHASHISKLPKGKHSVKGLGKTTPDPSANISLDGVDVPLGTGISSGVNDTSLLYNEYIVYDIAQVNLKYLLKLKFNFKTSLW

`O=c1c(O)c(-c2ccc(O)c(-c3c(O)cc(O)c4c(=O)cc(-c5ccc(O)cc5)oc34)c2)oc2cc(OS(=O)(=O)O)cc(O)c12`: the IC50 was 0.1158 µg/mL in assay [1] and 510 nM in assay [1] (read-out: IC50).
As for `O=c1cc(-c2ccc(O)c(-c3c(O)cc(O)c4c(=O)cc(-c5ccc(O)cc5)oc34)c2)oc2cc(O)cc(O)c12` [AMENTOFLAVONE], the outcome with A549 [2], with A549 [3] and in the assay with A549 [4] was Active. The IC50 in assay [1] worked out at 0.1398 µg/mL; in assay [1] (read-out: IC50), 120 nM.
Take `O=c1cc(-c2ccc(O)c(-c3c(O)cc(O)c4c(=O)cc(-c5ccc(OS(=O)(=O)O)cc5)oc34)c2)oc2cc(O)cc(O)c12`: the outcome with A549 [5], in the assay with A549 [6] and in the assay on A549 [7] was Active. In addition, the results for the IC50 in assay [1] and in assay [1] (read-out: IC50) were 0.0804 µg/mL and 170 nM, respectively.
Consider `O=c1c(O)c(-c2ccc(O)c(-c3c(O)cc(O)c4c(=O)cc(-c5ccc(OS(=O)(=O)O)cc5)oc34)c2)oc2cc(OS(=O)(=O)O)cc(O)c12`, for which the IC50 in assay [1] (read-out: IC50) worked out at 240 nM.

One may read the IC50 as the point on the concentration scale where inhibition reaches its midpoint.

These data come from ChEMBL document CHEMBL5131411, “Evaluation of amentoflavone metabolites on PARP-1 inhibition and the potentiation on anti-proliferative effects of carboplatin in A549 cells” (Bioorg Med Chem Lett, 2022).
